Experiments:
ER-α receptor = molecular target: T1, ER-α receptor (Homo sapiens, UniProt P03372); assay: Radioligand ([3H]-estradiol) competition binding to estrogen receptor, ER-α; settings: [3H]-estradiol 100 nM, incubated overnight at 4° C., GF/B filtration, scintillation counting; read-out: Affinity constant of ER-α receptor
T1 sequence (P03372 1-595): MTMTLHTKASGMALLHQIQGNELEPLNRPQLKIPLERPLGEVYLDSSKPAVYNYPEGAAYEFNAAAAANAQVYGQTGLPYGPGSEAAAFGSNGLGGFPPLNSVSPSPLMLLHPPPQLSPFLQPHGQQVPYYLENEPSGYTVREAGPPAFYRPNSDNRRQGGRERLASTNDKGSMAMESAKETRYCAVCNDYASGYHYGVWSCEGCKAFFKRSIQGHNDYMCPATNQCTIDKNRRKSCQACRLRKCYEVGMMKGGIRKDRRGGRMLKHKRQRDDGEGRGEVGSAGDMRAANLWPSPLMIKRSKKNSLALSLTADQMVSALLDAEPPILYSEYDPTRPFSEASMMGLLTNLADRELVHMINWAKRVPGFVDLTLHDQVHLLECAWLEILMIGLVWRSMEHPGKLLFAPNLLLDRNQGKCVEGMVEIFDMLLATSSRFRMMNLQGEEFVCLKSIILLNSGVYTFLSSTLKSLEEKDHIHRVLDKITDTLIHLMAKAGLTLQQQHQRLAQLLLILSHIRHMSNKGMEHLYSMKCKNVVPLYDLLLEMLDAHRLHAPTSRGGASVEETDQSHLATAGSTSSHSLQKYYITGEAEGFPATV
Method: (§1) The activity of the compound was obtained as follows: the compound was first dissolved in DMSO and formulated into 6-8 concentration gradient solutions. The estrogen receptor and radiolabeled estradiol ([^3H]-estradiol, 100 nM) were added into the buffer and mixed to prepare a reaction solution. Each compound concentration gradient solution was separately added into the reaction solution, mixed, and incubated overnight at 4° C. so that the compound and estradiol fully reacted with the estrogen receptor. Then, the TopCount NXT Liquid Scintillation Counter (Perkin Elmer) was used for the radioactivity intensity measurement after GF/B filtration. Data processing was performed according to the detected values of each concentration to obtain the affinity constant of the compound with estrogen receptor, as shown in the following table: […]

ER-β receptor = ER-β receptor (Homo sapiens, UniProt Q92731); assay: Radioligand ([3H]-estradiol) competition binding to estrogen receptor, ER-β; settings: [3H]-estradiol 100 nM, incubated overnight at 4° C., GF/B filtration, scintillation counting; read-out: Affinity constant of ER-β receptor
Method: as §1

Sequence of ER-β receptor (Q92731 whole entry): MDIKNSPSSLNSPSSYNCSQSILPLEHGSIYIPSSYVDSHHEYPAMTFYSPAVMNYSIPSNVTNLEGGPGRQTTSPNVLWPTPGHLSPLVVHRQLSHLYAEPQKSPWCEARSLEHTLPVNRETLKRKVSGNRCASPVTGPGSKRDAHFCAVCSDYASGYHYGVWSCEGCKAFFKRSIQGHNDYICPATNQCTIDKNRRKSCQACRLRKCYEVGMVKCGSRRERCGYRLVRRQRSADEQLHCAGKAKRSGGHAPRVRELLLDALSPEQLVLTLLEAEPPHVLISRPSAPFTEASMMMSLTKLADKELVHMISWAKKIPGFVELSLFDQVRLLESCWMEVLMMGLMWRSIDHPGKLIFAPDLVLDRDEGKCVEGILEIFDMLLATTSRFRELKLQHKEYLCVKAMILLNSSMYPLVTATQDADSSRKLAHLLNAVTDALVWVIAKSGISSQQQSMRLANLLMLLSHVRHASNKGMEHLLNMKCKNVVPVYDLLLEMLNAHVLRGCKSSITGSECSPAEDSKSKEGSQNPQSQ

| Ki (ER-α receptor) [nM] | Ki (ER-β receptor) [nM] | SMILES |
| --- | --- | --- |
| 98 | 10 | CCc1nn(-c2ccc(O)cc2)c(=O)c2c(O)cc(O)cc12 |
| 76 | 8 | Cc1nn(-c2ccc(O)cc2)c(=O)c2c(O)cc(O)cc12 |
| 1200 | 105 | O=c1c2c(O)cc(O)cc2cnn1-c1ccc(O)cc1 |
| 3600 | 1500 | O=c1c2c(O)cc(O)c(Br)c2cnn1-c1ccc(O)cc1 |

From patent US10640469B2, “Polyhydroxyphthalazinone compound, preparation method thereof and use thereof” (RejuvGen Pharmaceuticals, Inc., priority 2017, dated 2020)
